# Where two headings read alike, the source gives them in different places.
# Key:
# [1] = test system: Acinetobacter Baumanii ATCC 17904; assay: Determination of MIC and MBC by microdilution method, Acinetobacter; format: cell-based; conditions: Acinetobacter baumannii; for MIC: ATCC17904, 18 h, read-out: Minimal inhibitory concentration (MIC)
# Procedure: The compound have been tested towards 7 reference strains: […]
# (§1) The determination of minimal inhibitory concentrations (MIC) has been performed using a microdution method (microplates and inoculator Dynatech) in liquid medium (MUELLER-HINTON broth) under a volume of 100 μl and for a range of concentrations from 128 to 0.06 mg/l, prepared from a mother liquor of antibiotics titrating 512 mg/l. The preparation of these mother liquors has been performed and vary depending on the molecules as a function of the solubility criterions. Inoculation has been done by adding in each will, 10 μl of a dilution in saline of 18 hours old broth in a brain-heart broth, such as each well contains about 10^6 bacterias/ml.
# (§2) The Minimal Inhibitory Concentrations are read as the first concentration of antibiotic which will not give a growth macroscopically detectable after 18 hours incubating at 37°.
# [2] = test system: Staphylococcus aureus ATCC 25923; assay: Determination of MIC and MBC by microdilution method, Staphylococcus aureus ATCC 25923; format: cell-based; conditions: Staphylococcus aureus; for MIC: ATCC25923, 18 h, read-out: Minimal inhibitory concentration (MIC)
# Procedure: (§3) The compound have been tested towards 7 reference strains:
# Staphylococcus aureus ATCC 25923
# as §1, §2
# [3] = test system: Streptococcus faecalis ATCC 8043; assay: Determination of MIC and MBC by microdilution method, Streptococcus faecalis ATCC 8043; format: cell-based; conditions: Enterococcus faecalis; for MIC: read-out: Minimal inhibitory concentration (MIC)
# Procedure: as §3
# Streptococcus faecalis ATCC 8043
# (§4) The preparation of these mother liquors has been performed and vary depending on the molecules as a function of the solubility criterions. Inoculation has been done by adding in each will, 10 μl of a dilution in saline of 18 hours old broth in a brain-heart broth, such as each well contains about 10^6 bacterias/ml. […]
# S. aureus CB-951 = assay: Determination of MIC and MBC by microdilution method, S. aureus CB-951; format: cell-based, Staphylococcus aureus; conditions: Staphylococcus aureus; for MIC: CB951, 18 h, read-out: Minimal inhibitory concentration (MIC)
# Procedure: as §3
# Staphylococcus aureus CB 951
# as §1, §2
# [4] = test system: Pseudomonas aeruginosa ATCC 22853; assay: Determination of MIC and MBC by microdilution method, Pseudomonas aeruginosa ATCC 22853; format: cell-based; conditions: Pseudomonas aeruginosa; for MIC: ATCC22853, 18 h, read-out: Minimal inhibitory concentration (MIC)
# Procedure: as §3
# Pseudomonas aeruginosa ATCC 22853
# as §4
# [5] = test system: Escherichia coli ATCC 25922; assay: Determination of MIC and MBC by microdilution method, Escherichia coli ATCC 25922; format: cell-based; conditions: Escherichia coli, ATCC25922, E. coli ATCC 25922; for MIC: Mueller-Hinton broth, 18 hours at 37°, read-out: Minimal inhibitory concentration (MIC); for MBC: read-out: Minimal bactericidal concentration (MBC)
# Procedure: as §3
# Escherichia coli ATCC 25922
# as §1, §2
# [6] = Acinetobacter Baumanii ATCC 17904, Mueller-Hinton broth, 18 hours at 37°
# [7] = ATCC17904, Acinetobacter Baumanii ATCC 17904, read-out: Minimal bactericidal concentration (MBC)
# [8] = S. aureus ATCC 25923, Mueller-Hinton broth, 18 hours at 37°
# [9] = ATCC25923, S. aureus ATCC 25923, read-out: Minimal bactericidal concentration (MBC)
# [10] = ATCC8043, S. faecalis ATCC 8043, read-out: Minimal bactericidal concentration (MBC)
# [11] = ATCC8043, S. faecalis ATCC 8043, Mueller-Hinton broth, 18 hours at 37°
# [12] = S. aureus CB-951, methicillino, erythromycinolincomycino, pefloxacino resistant, Mueller-Hinton broth, 18 hours at 37°
# [13] = CB951, S. aureus CB-951, methicillino, erythromycinolincomycino, pefloxacino resistant, read-out: Minimal bactericidal concentration (MBC)
# [14] = P. aeruginosa ATCC 22853, Mueller-Hinton broth, 18 hours at 37°
# [15] = ATCC22853, P. aeruginosa ATCC 22853, read-out: Minimal bactericidal concentration (MBC)
MIC [5] [µg/mL],"MIC [1, 6] [µg/mL]","MIC [2, 8] [µg/mL]","MIC [3, 11] [µg/mL]",MIC (S. aureus CB-951; [12]) [µg/mL],"MIC [4, 14] [µg/mL]",SMILES,MBC [5] [µg/mL],"MBC [1, 7] [µg/mL]","MBC [2, 9] [µg/mL]","MBC [3, 10] [µg/mL]",MBC (S. aureus CB-951; [13]) [µg/mL],"MBC [4, 15] [µg/mL]",also measured
8,2,0.5,4,4,> 32,"CCn1cc(C(=O)O)c(=O)c2cc(F)c(N3CCC(CNC(=O)CCO)CC3)c(F)c21 [Compound 2, 7-(4-(3-hydroxypropionylaminomethyl)piperidinyl-1) 6,8-difluoro 1-ethyl 4-oxo 1,4-dihydroquinoleinyl-3 carboxylic acid]",8,4,1,4,4,> 32,–
8,0.25,0.5,8,1,> 16,"CCC(=O)NCC1CCN(c2c(F)cc3c(=O)c(C(=O)O)cn(CC)c3c2F)CC1 [Compound 7, 7-[(4-propionylaminomethyl)piperidinyl-1] 6,8-difluoro 1-ethyl 4-oxo 1,4-dihydroquinoleinyl-3 carboxylic acid]",8,0.5,0.51,8,1,> 16,–
0.7,0.3,0.15,25,0.3,3,"CCn1cc(C(=O)O)c(=O)c2cc(F)c(N3CCC(CNC(=O)Nc4ccccc4)CC3)c(F)c21 [Compound 10, 7-[(4-Phenylaminocarboxamidomethyl)piperidinyl-1] 6,8-difluoro 1-ethyl 4-oxo 1,4-dihydroquinoleinyl-3 carboxylic acid]",0.7,0.7,0.3,> 25,1.5,6,–
16,–,0.03,4,1,> 16,"CCn1cc(C(=O)O)c(=O)c2cc(F)c(N3CCC(CNC(=O)Nc4ccc([N+](=O)[O-])cc4)CC3)c(F)c21 [Compound 17, 7-[4-(4-nitrophenyl)aminocarbonylaminomethylpiperidinyl-1] 6,8-difluoro 1-ethyl]",> 16,–,0.03,8,1,> 16,–
8,–,–,2,0.03,> 32,"CCn1cc(C(=O)O)c(=O)c2cc(F)c(N3CCC(CNC(=O)Nc4ccccc4F)CC3)c(F)c21 [Compound 19, 7-[4-(2-fluorophenyl)aminocarbonylaminomethylpiperidinyl-1] 6,8-difluoro 1-ethyl]",8,–,–,2,0.06,> 32,–

# The remaining lines, values behind:
SMILES,MIC [5] [µg/mL],"MIC [1, 6] [µg/mL]","MIC [2, 8] [µg/mL]","MIC [3, 11] [µg/mL]",MIC (S. aureus CB-951; [12]) [µg/mL],"MIC [4, 14] [µg/mL]",MBC [5] [µg/mL],"MBC [1, 7] [µg/mL]","MBC [2, 9] [µg/mL]","MBC [3, 10] [µg/mL]",MBC (S. aureus CB-951; [13]) [µg/mL],"MBC [4, 15] [µg/mL]",also measured
"O=C(O)c1cn(C2CC2)c2cc(N3CCNCC3)c(F)cc2c1=O [Ciprofloxacine, reference compound]",–,–,–,–,–,–,–,–,–,–,–,–,"MIC [1]: 0.06 µg/mL; MBC ([1]; ATCC17904, read-out: Minimal bactericidal concentration (MBC)): 0.06 µg/mL; MIC [2]: 0.25 µg/mL; MBC ([2]; ATCC25923, read-out: Minimal bactericidal concentration (MBC)): 0.25 µg/mL; MIC ([3]; ATCC8043, 18 h): 0.25 µg/mL; MBC ([3]; ATCC8043, read-out: Minimal bactericidal concentration (MBC)): 0.25 µg/mL; MIC (S. aureus CB-951): 4 µg/mL; MBC (S. aureus CB-951; CB951, read-out: Minimal bactericidal concentration (MBC)): 4 µg/mL; MIC [4]: 0.12 µg/mL; MBC ([4]; ATCC22853, read-out: Minimal bactericidal concentration (MBC)): 0.25 µg/mL"
"NCC1CCN(c2c(F)cc3c(=O)c(C(=O)O)cn(CCF)c3c2F)CC1 [Compound 3, 7-(4-aminomethylpiperidinyl-1) 6,8-difluoro 1-fluoroethyl 4-oxo 1,4-dihydroquinoleinyl-3 carboxylic acid]",2,2,0.5,2,4,8,2,4,1,4,8,16,–
"NCC1CCN(c2c(F)cc3c(=O)c(C(=O)O)cn(Cc4ccc(F)cc4)c3c2F)CC1 [Compound 4, 7-(4-aminomethylpiperidinyl-1) 6,8-difluoro 1-(4-fluorobenzyl) 4-oxo 1,4-dihydroquinoleinyl-3 carboxylic acid]",> 12,12,12,> 12,> 12,> 12,> 12,> 12,12,12,12,> 12,–
"NCC1CCN(c2c(F)cc3c(=O)c(C(=O)O)cn(Cc4ccccc4Cl)c3c2F)CC1 [Compound 5, 7-(4-aminomethylpiperidinyl-1) 6,8-difluoro 1-(2-chlorobenzyl) 4-oxo 1,4-dihydroquinoleinyl-3 carboxylic acid]",4,4,2,16,> 16,> 16,8,8,4,> 16,> 16,> 16,–
"CCC(=O)NCC1CCN(c2c(F)cc3c(=O)c(C(=O)O)cn(CCF)c3c2F)CC1 [Compound 8, 7-[(4-propionylaminomethyl)piperidinyl-1] 6,8-difluoro1-fluoroethyl 4-oxo 1,4-dihydroquinoleinyl-3 carboxylic acid]",6,0.3,0.15,6,0.3,> 12,> 12,0.7,0.3,> 12,0.7,> 12,–

# From US5420140A, “Difluorinated quinolones useful for treating bacterial infections” (Bouchara S.A., priority 1991, dated 1995)
